Laboratory results published in ChEMBL document CHEMBL1201862, “PubChem BioAssay data set” (2004).
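In this assay, cells in 96-well plates receive the compound at five concentrations for 48 hours. Endpoints are linearly interpolated between the surrounding concentrations. At the GI50, growth is halved.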 Activity calls are given as the source filed them. Cut-off read from the data, not from the text of the source: active = GI50 up to about 1.1 µM and inactive = higher.

What was measured:
Assay in all cases: NCI anticancer screen, dose series, 48 h
MOLT-4 = tested on: MOLT-4
A498 = tested on: A498
SNB-19 = tested on: SNB-19
RXF 393 = tested on: RXF 393
SK-MEL-2 = tested on: SK-MEL-2
A549 = tested on: A549
OVCAR-4 = tested on: OVCAR-4
NCI-H226 = tested on: NCI-H226
SF-539 = tested on: SF-539
IGROV-1 = tested on: IGROV-1
SNB-75 = tested on: SNB-75
UACC-62 = tested on: UACC-62
SF-268 = tested on: SF-268
OVCAR-3 = tested on: OVCAR-3
UO-31 = tested on: UO-31
UACC-257 = tested on: UACC-257
COLO 205 = tested on: COLO 205
SK-OV-3 = tested on: SK-OV-3
EKVX = tested on: EKVX
CAKI-1 = tested on: CAKI-1

Measured: GI50

O=S(=O)(O)c1ccc(/N=N\c2ccc(/N=N\c3ccc(/C=C/c4ccc(/N=[N+](/[O-])c5ccc(/C=C/c6ccc(/N=N/c7ccc(/N=N\c8ccc(S(=O)(=O)O)cc8)cc7)cc6S(=O)(=O)O)c(S(=O)(=O)O)c5)cc4S(=O)(=O)O)c(S(=O)(=O)O)c3)cc2)cc1
inactive: MOLT-4 > 100 µM | A498 > 100 µM | SNB-19 > 100 µM | RXF 393 > 100 µM | SK-MEL-2 > 100 µM | A549 > 100 µM | OVCAR-4 > 87.9 µM | NCI-H226 > 67.8 µM | SF-539 > 100 µM | IGROV-1 > 100 µM | SNB-75 69.7 µM | UACC-62 > 100 µM | SF-268 > 100 µM | OVCAR-3 > 100 µM | UO-31 > 100 µM | UACC-257 > 100 µM | COLO 205 > 100 µM | SK-OV-3 > 100 µM | EKVX > 100 µM

Cc1c(Cl)nc(Nc2nc3ccccc3[nH]2)nc1Cl
inactive: MOLT-4 > 100 µM | A498 > 100 µM | SNB-19 > 100 µM | RXF 393 > 100 µM | SK-MEL-2 > 100 µM | A549 > 100 µM | OVCAR-4 29 µM | NCI-H226 > 100 µM | SF-539 > 100 µM | IGROV-1 36.2 µM | CAKI-1 6.71 µM | SNB-75 > 100 µM | UACC-62 > 100 µM | SF-268 47.6 µM | UO-31 > 100 µM | UACC-257 > 100 µM | COLO 205 72.3 µM | SK-OV-3 > 100 µM | EKVX 21.9 µM

c1ccc2c(c1)N=C(NC1CCCCC1)CCN2
inactive: MOLT-4 63.2 µM | A498 > 100 µM | SNB-19 > 100 µM | RXF 393 > 100 µM | SK-MEL-2 > 100 µM | A549 > 100 µM | OVCAR-4 > 100 µM | NCI-H226 > 100 µM | IGROV-1 33.1 µM | CAKI-1 > 100 µM | SNB-75 22 µM | UACC-62 > 100 µM | SF-268 > 100 µM | OVCAR-3 > 100 µM | UO-31 > 100 µM | UACC-257 > 100 µM | COLO 205 > 100 µM | SK-OV-3 > 100 µM | EKVX > 100 µM

O=C(Nc1ccc(Cl)cc1)C(=O)C(C(=O)c1ccccc1-c1ccccc1)C1OC(=O)c2ccccc21 (centres undefined)
inactive: MOLT-4 29.4 µM | A498 16.4 µM | SNB-19 16.6 µM | RXF 393 11.6 µM | SK-MEL-2 20.8 µM | A549 23.6 µM | OVCAR-4 35.5 µM | NCI-H226 6.34 µM | SF-539 22.5 µM | IGROV-1 29.1 µM | CAKI-1 24 µM | SNB-75 31.4 µM | UACC-62 15.9 µM | SF-268 21.3 µM | UO-31 19.4 µM | UACC-257 21.9 µM | COLO 205 21.7 µM | SK-OV-3 27.6 µM | EKVX 18.2 µM

O=S(=O)(c1ccccc1)C1CC(c2nc3ccccc3[nH]2)=NO1 (centres undefined)
inactive: MOLT-4 39.1 µM | A498 43 µM | SNB-19 > 100 µM | RXF 393 83 µM | SK-MEL-2 > 100 µM | A549 > 100 µM | OVCAR-4 > 100 µM | NCI-H226 > 100 µM | SF-539 51.4 µM | IGROV-1 16.6 µM | CAKI-1 97.7 µM | SNB-75 > 100 µM | UACC-62 > 100 µM | SF-268 > 100 µM | OVCAR-3 89.9 µM | UO-31 > 100 µM | UACC-257 > 100 µM | COLO 205 37.3 µM | SK-OV-3 > 100 µM | EKVX 84.9 µM

CC(C)=CC1CC(=O)C1(C)Sc1ccccc1 (centres undefined)
inactive: MOLT-4 34.4 µM | A498 56.2 µM | SNB-19 67.8 µM | RXF 393 26.2 µM | SK-MEL-2 35.2 µM | A549 48.2 µM | OVCAR-4 > 100 µM | NCI-H226 34.4 µM | SF-539 > 100 µM | IGROV-1 > 100 µM | CAKI-1 54.7 µM | SNB-75 65.2 µM | UACC-62 > 100 µM | SF-268 51.3 µM | OVCAR-3 52.4 µM | UO-31 50.2 µM | UACC-257 45.5 µM | COLO 205 23.1 µM | SK-OV-3 > 100 µM | EKVX 54.2 µM

CCOC(=O)c1c(NC(=O)Nc2ccccc2)c(C(N)=O)c2n1CCCCC2
inactive: MOLT-4 > 100 µM | A498 > 100 µM | SNB-19 > 100 µM | RXF 393 > 100 µM | SK-MEL-2 > 100 µM | OVCAR-4 > 100 µM | NCI-H226 > 100 µM | SF-539 > 100 µM | IGROV-1 > 100 µM | CAKI-1 > 100 µM | SNB-75 > 100 µM | UACC-62 > 100 µM | SF-268 > 100 µM | UO-31 > 100 µM | UACC-257 > 100 µM | COLO 205 > 100 µM | SK-OV-3 > 100 µM | EKVX > 100 µM
